Test results: article PMC8533149 (Biomolecules, 2021)

Each compound was assayed on HIV-1 LTR-III G-quadruplex (FAM/TAMRA-labeled LTR-III) (assay: FRET melting assay, LTR-III G4). Conditions: Table S1 primary screening, ligand:ODN 50:1, singlicate.
Format: binding
Method in brief: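 Melting is followed by FAM fluorescence (ex 495/em 520 nm) while heating at 1 °C/min from 30 to 95 °C. Labelled ODN at 0.5 μM, pre-annealed in 10 mM Li cacodylate, 100 mM KCl, pH 7.4, mixed with ligand at 50:1 (25 μM), or 20:1 and 2:1 for titration. ΔTm is relative to the 0.25% DMSO buffer control.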
In the case of COc1cc(O)ccc1C=C1N=C(C=Cc2c(F)c(F)nc(F)c2F)N(C)C1=O [N 967], the “LTR-III ΔTm” value is reported as 0.8 °C. With COc1cc(O)cc(OC)c1C=C1N=C(C=Cc2c(F)c(F)nc(F)c2F)N(C)C1=O [N 971] the “LTR-III ΔTm” value was 0.1 °C. In the case of COc1cc(O)cc(OC)c1C=C1N=C(C=Cc2cc(Cl)nc(Cl)c2)N(C)C1=O [N 973], the “LTR-III ΔTm” value is reported as 2.3 °C. With COc1cc(O)cc(OC)c1C=C1N=C(C)N(C)C1=O [N 976] the “LTR-III ΔTm” value was 0.5 °C. In the case of COc1cc(/C=C2N=C(/C=C/c3c(F)c(F)nc(F)c3F)N(C)C\2=O)cc(OC)c1O [N 980], the “LTR-III ΔTm” value is reported as 1 °C. For CC1=NC(=Cc2ccc(C)o2)C(=O)N1C [N 1020], the “LTR-III ΔTm” value was -0.2 °C. In the case of CC1=NC(=Cc2cccs2)C(=O)N1C [N 1021], the “LTR-III ΔTm” value is reported as 0.3 °C. COc1c(O)ccc(C=C2N=C(C)N(C)C2=O)c1OC [N 1027.1] was tested, and the “LTR-III ΔTm” value was -0.1 °C. With COc1cc(/C=C2\N=C(C)N(C)C2=O)c(OC)cc1O [N 1036] the “LTR-III ΔTm” value was 0.5 °C. COc1cc(O)ccc1/C=C1N=C(/C=C/c2cccs2)N(C)C\1=O [N 1039] was tested, and the “LTR-III ΔTm” value was 1.1 °C. COc1c(O)ccc(/C=C2\N=C(C)N(C)C2=O)c1O [N 1042] was tested, and the “LTR-III ΔTm” value was 1.4 °C. COc1cc(/C=C2N=C(/C=C/c3ccncc3)N(C)C\2=O)c(OC)cc1O [N 1048] was tested, and the “LTR-III ΔTm” value was 1.5 °C. With COc1cc(O)ccc1C=C1N=C(C=CN2CCCC2)N(C)C1=O [N 1118] the “LTR-III ΔTm” value was 3 °C. With COc1cc(O)ccc1C=C1N=C2C=CC=CN2C1=O [N 1123] the “LTR-III ΔTm” value was 0.3 °C. COc1cc(O)ccc1/C=C1\N=C(C(C)=O)N(C)C1=O [N 1124] was tested, and the “LTR-III ΔTm” value was 1.3 °C. With COc1cc(O)ccc1C=C1N=C(Cc2ccccc2)N(C)C1=O [N 1135] the “LTR-III ΔTm” value was 0 °C. For COc1cc(O)ccc1/C=C1\N=C(C(=O)c2ccccc2)N(C)C1=O [N 1139], the “LTR-III ΔTm” value was 0.6 °C. For COc1cc(O)ccc1C=C1N=C(C(=Cc2ccncc2)c2ccccc2)N(C)C1=O [N 1142], the “LTR-III ΔTm” value was 0.1 °C. CCCCN(CCCC)c1ccc(C=C2N=C(C)N(C)C2=O)cc1 [SA 33] was tested, and the “LTR-III ΔTm” value was 0.2 °C. In the case of CN1C(=O)C(=Cc2ccc(O)c(F)c2)N=C1c1ccccc1 [SA 49.1], the “LTR-III ΔTm” value is reported as 0 °C. CC1=NC(=Cc2ccc(O)c(F)c2)C(=O)N1CC(N)=O [SA 99] was tested, and the “LTR-III ΔTm” value was 0.1 °C. In the case of O=C1CN2C(=O)C(=Cc3ccc(O)cc3)N=C2C(=O)N1 [SA 102], the “LTR-III ΔTm” value is reported as 0.2 °C. In the case of CN1C(=O)CN2C(=O)C(=Cc3ccc(O)cc3)N=C2C1=O [SA 108], the “LTR-III ΔTm” value is reported as -0.1 °C. With CCOC(=O)CN1C(=O)C(=Cc2cccc([N+](=O)[O-])c2)N=C1C [SA 111] the “LTR-III ΔTm” value was -0.1 °C. In the case of CCOC(=O)CN1C(=O)C(=Cc2ccc(OC)cc2)N=C1C [SA 117], the “LTR-III ΔTm” value is reported as -0.2 °C. In the case of CC1=NC(=Cc2cccc([N+](=O)[O-])c2)C(=O)N1CC(N)=O [SA 128], the “LTR-III ΔTm” value is reported as 0.1 °C. For COc1ccc(C=C2N=C3C(=O)NC(=O)CN3C2=O)cc1 [SA 130], the “LTR-III ΔTm” value was 0.4 °C. CCOC(=O)CN1C(=O)C(=Cc2ccccc2)N=C1C [SA 148] was tested, and the “LTR-III ΔTm” value was -1.3 °C. In the case of CC1=NC(=Cc2ccccc2)C(=O)N1CC(N)=O [SA 152], the “LTR-III ΔTm” value is reported as -0.3 °C. For COc1ccc(C=C2N=C(Nc3ccc(Br)cc3)N(C)C2=O)cc1 [SA 158], the “LTR-III ΔTm” value was 0.2 °C. With COc1ccc(C=C2N=C(Nc3ccc(OC)cc3)N(C)C2=O)cc1 [SA 168] the “LTR-III ΔTm” value was -0.4 °C. In the case of COc1ccc(C=C2N=C(Nc3ccc(C#N)cc3)N(C)C2=O)cc1 [SA 179], the “LTR-III ΔTm” value is reported as 0.7 °C. For CC(C)OC(=O)c1noc(=O)c(O)c1-c1ccccc1 [SA 300A], the “LTR-III ΔTm” value was 0.1 °C. CC(C)OC(=O)c1noc(=O)c(O)c1-c1cccc2ccccc12 [SA 300B] was tested, and the “LTR-III ΔTm” value was -0.9 °C. With CC(C)OC(=O)c1noc(=O)c(O)c1-c1ccc(C(C)C)cc1 [SA 300D] the “LTR-III ΔTm” value was -1.2 °C. For CC(C)OC(=O)c1noc(=O)c(O)c1-c1ccccc1F [SA 305A], the “LTR-III ΔTm” value was -0.7 °C. With CC(C)OC(=O)c1noc(=O)c(O)c1-c1cccc(C(F)(F)F)c1 [SA 305B] the “LTR-III ΔTm” value was -0.5 °C. With CC(C)OC(=O)c1noc(=O)c(O)c1-c1ccc(N(C)C)cc1 [SA 305C] the “LTR-III ΔTm” value was -0.6 °C.
